# Laboratory results as given in patent US9561201B2, “Therapeutic compounds” (Fibrotech Therapeutics Pty Ltd, priority 2006, dated 2017).
# Experiments:
# rat mesangial cell line [1] = test: TGF-β stimulated 3H-proline incorporation in mesangial cells (Example 5); format: cell-based; details: for Collagen synthesis: inhibition ranked against tranilast (T) or FT11
# Method: (§1) A well-characterized cloned rat mesangial cell line (gift of D Nikolic-Patterson) is cultured in DMEM with FBS, 100 U/mL penicillin, and 100 ug/mL streptomycin in a humidified 5% CO2 atmosphere at 37° C. Cells are plated into 24-well culture dishes in DMEM/10% FBS at low density and allowed to adhere overnight. Cells are used between passages 20 and 40. The subconfluent cells are starved overnight in DMEM/0.1% FBS containing 150 uM L-ascorbic acid, prior to 4 hours of pre-treatment with or without tranilast or the FT compounds, followed by the addition of 5 ng/mL rhTGF-β11 (R&D Systems) and 1 uCi/mL of L-(2,3,4,5-^3H)-proline. Control wells have the compounds but no TGF-β1 added. Cells are incubated for a further 44 hours during which time their appearance is visually monitored. The cells are then washed three times in ice-cold PBS, twice in ice cold 10% TCA and solubilized in 750 uL 1M NaOH for 45 minutes at 37° C. or overnight at 4° C. A 500 uL aliquot is neutralized with 500 uL 1M HCl and 10 mL scintillation fluid (Instagel Plus-Perkin-Elmer) added. Counts are performed on a beta counter.
# To normalize the proline incorporation counts to take into account the proliferative effects of TGF-β1, a BioRad protein assay is performed on a 100-150 uL aliquot of the remaining solubilized cells. The sample is neutralized with an equal amount of 1M HCl prior to the assay. The BSA standards used to construct the standard curve have the same amount of 1M NaOH and 1M HCl added as is present in the samples for assay.
# Proline incorporation is expressed as cpm/ug protein. In order to compare inter-assay results, the incorporation is expressed as percentage reduction of TGF stimulated proline incorporation, where TGF alone gives 0% reduction and the zero control gives 100% reduction.
# rat mesangial cell line [2] = test: Effect on mesangial cell appearance (visual monitoring during proline assay); format: cell-based
# Method: as §1
# Compounds in Bold have Minimal Effect on Cell Appearance and Viability
# [3] = Rattus norvegicus, Mesangial cell, 5 ng/mL TGF-β1, 44 h, read-out: Mesangial Cell Assay TGF-β % reduction of TGF-β stimulation_proline inc.
melting point [°C],SMILES,Collagen synthesis (rat mesangial cell line [1]),inhibition at 10 µM (rat mesangial cell line [1]; [3]) [%],further results
197 to 198,"C#CCCOc1cc(/C=C/C(=O)Nc2ccccc2C(=O)O)ccc1OC [Analogue 38, (E)-2-[[3-(3-(But-3-ynyloxy)-4-methoxyphenyl)-1-oxo-2-propenyl]amino]benzoic acid]",=FT11,~40,inhibition at 30 µM (rat mesangial cell line [1]; [3]): 65%; Effect on mesangial cell appearance (rat mesangial cell line [2]; @ 100 μM): Some death
165 to 166,"CCC#CCCOc1ccc(/C=C/C(=O)Nc2ccccc2C(=O)O)cc1OC [Analogue 39, (E)-2-[[3-(4-(Hex-3-ynyloxy)-3-methoxyphenyl)-1-oxo-2-propenyl]amino]benzoic acid]",>FT11,~70,inhibition at 30 µM (rat mesangial cell line [1]; [3]): 100%; Effect on mesangial cell appearance (rat mesangial cell line [2]; @ 30 μM): Looking bad
163 to 165,"CCC#CCCOc1cc(/C=C/C(=O)Nc2ccccc2C(=O)O)ccc1OC [Analogue 40, (E)-2-[[3-(3-(Hex-3-ynyloxy)-4-methoxyphenyl)-1-oxo-2-propenyl]amino]benzoic acid]",>FT11,~70,inhibition at 30 µM (rat mesangial cell line [1]; [3]): 100%; Effect on mesangial cell appearance (rat mesangial cell line [2]; @ 100 μM): dead
169 to 170,"CCCCC#CCCOc1ccc(/C=C/C(=O)Nc2ccccc2C(=O)O)cc1OC [Analogue 41, (E)-2-[[3-(3-Methoxy-4-(oct-3-ynyloxy)phenyl)-1-oxo-2-propenyl]amino]benzoic acid]",Toxic,,Effect on mesangial cell appearance (rat mesangial cell line [2]; @ all concentrations): Cells damaged @
157 to 158,"CCCCC#CCCOc1cc(/C=C/C(=O)Nc2ccccc2C(=O)O)ccc1OC [Analogue 42, (E)-2-[[3-(4-Methoxy-3-(oct-3-ynyloxy)phenyl)-1-oxo-2-propenyl]amino]benzoic acid]",Toxic,,Effect on mesangial cell appearance (rat mesangial cell line [2]; @ all concentrations): Cells damaged @
82 to 85,"CCC(CC)Oc1ccc(/C=C/C(=O)Nc2ccccc2C(=O)O)cc1OC [Analogue 45, (E)-2-[[3-(3-Methoxy-4-(pent-3-yloxy)phenyl)-1-oxo-2-propenyl]amino]benzoic acid]",>FT11,80,inhibition at 30 µM (rat mesangial cell line [1]; [3]): 142%; Effect on mesangial cell appearance (rat mesangial cell line [2]; @ 100 μM): Cells damaged
209 to 211,"COc1ccc(/C=C/C(=O)Nc2ccccc2C(=O)O)cn1 [Analogue 46, (E)-2-[[3-(6-Methoxypyridin-3-yl)-1-oxo-2-propenyl]amino]benzoic acid]",<<FT11,,
112 to 114,COc1cc(/C=C/C(=O)Nc2ccccc2C(=O)O)ccc1OCC(=O)C12CC3CC(CC(C3)C1)C2 [Analogue 47],,,
195 to 201,"COc1cc(/C=C/C(=O)Nc2ccccc2C(=O)O)ccc1OCCN1CCOCC1 [Analogue 48, (E)-2-[[3-(3-Methoxy-4-(2-morpholinoethoxy)phenyl)-1-oxo-2-propenyl]amino]benzoic acid]",,,
245 to 251,"COc1cc(/C=C/C(=O)Nc2ccccc2C(=O)O)ccc1OCc1cccnc1 [Analogue 49, (E)-2-[[3-(3-Methoxy-4-(pyridin-3-ylmethoxy)phenyl)-1-oxo-2-propenyl]amino]benzoic acid]",,,
227 to 229,"COc1ccc(/C=C/C(=O)Nc2ccccc2C(=O)O)cc1OCc1c(C)noc1C [Analogue 50, (E)-2-[[3-((3-(3,5-Dimethylisoxazol-4-yl)methoxy)-4-methoxyphenyl)-1-oxo-2-propenyl]amino]benzoic acid]",,,
202 to 205,"CCN(CC)Cc1cc(/C=C/C(=O)Nc2ccccc2C(=O)O)ccc1OC [Analogue 51, (E)-2-[[3-(3-((Diethylamino)methyl)-4-methoxyphenyl)-1-oxo-2-propenyl]amino]benzoic acid]",,,

# The next lines start with the compound.
SMILES,melting point [°C],Collagen synthesis (rat mesangial cell line [1]),inhibition at 10 µM (rat mesangial cell line [1]; [3]) [%],further results
"O=C(/C=C/c1ccccc1)Nc1ccccc1C(=O)O [Analogue 2, (E)-2-[(1-Oxo-3-phenyl-2-propenyl)amino]benzoic acid]",188 to 189,<<T,,
"COc1cccc(/C=C/C(=O)Nc2ccccc2C(=O)O)c1 [Analogue 4, (E)-2-[[3-(3-Methoxyphenyl)-1-oxo-2-propenyl]amino]benzoic acid]",183 to 184,<<T,,
"O=C(/C=C/c1ccc(O)c(O)c1)Nc1ccccc1C(=O)O [Analogue 5, (E)-2-[[3-(3,4-Dihydroxyphenyl)-1-oxo-2-propenyl]amino]benzoic acid]",204 to 206,May be toxic,,Effect on mesangial cell appearance (rat mesangial cell line [2]; no concentration stated): Cells looking
"COc1cc(/C=C/C(=O)Nc2ccccc2C(=O)O)ccc1O [Analogue 6, (E)-2-[[3-(4-Hydroxy-3-methoxyphenyl)-1-oxo-2-propenyl]amino]benzoic acid]",207.5 to 208.5,<=T,20,inhibition at 50 µM (rat mesangial cell line [1]; [3]): 45%
"COc1ccc(/C=C/C(=O)Nc2ccccc2C(=O)O)cc1O [Analogue 7, (E)-2-[[3-(3-Hydroxy-4-methoxyphenyl)-1-oxo-2-propenyl]amino]benzoic acid]",215 to 216,> or =T,~50,inhibition at 50 µM (rat mesangial cell line [1]; [3]): 80%; Effect on mesangial cell appearance (rat mesangial cell line [2]; no concentration stated): stressed
"COc1ccc(/C=C/C(=O)Nc2cc3ccccc3cc2C(=O)O)cc1OC [Analogue 8, (E)-3-[[3-(3,4-Dimethoxyphenyl)-1-oxo-2-propenyl]amino]-2-naphthoic acid]",212 to 213,Toxic,,Effect on mesangial cell appearance (rat mesangial cell line [2]; no concentration stated): Heavily
"COc1ccc(/C=C/C(=O)Nc2cc(OC)c(OC)cc2C(=O)O)cc1OC [Analogue 9, (E)-2-[[3-(3,4-Dimethoxyphenyl)-1-oxo-2-propenyl]amino]-4,5-dimethoxybenzoic acid]",236 to 239,<<T,,
"COc1ccc(CCC(=O)Nc2ccccc2C(=O)O)cc1OC [Analogue 10, 2-[[3-(3,4-Dimethoxyphenyl)-1-oxopropyl]amino]benzoic acid]",137,<<T,,
"CCC#CCOc1ccc(/C=C/C(=O)Nc2ccccc2C(=O)O)cc1OC [Analogue 18, (E)-2-[[3-(3-Methoxy-4-(pent-2-ynyloxy)phenyl)-1-oxo-2-propenyl]amino]benzoic acid]",185.5 to 186.5,>>FT11,~70,inhibition at 3 µM (rat mesangial cell line [1]; [3]): ~55%; Effect on mesangial cell appearance (rat mesangial cell line [2]; @ 30 μM): lifting off
"CC#CCOc1cc(/C=C/C(=O)Nc2ccccc2C(=O)O)ccc1OC [Analogue 23, (E)-2-{[3-(3-(But-2-ynyloxy)-4-methoxyphenyl)-1-oxo-2-propenyl]amino}benzoic acid]",170 to 171,>=FT11,30 to 60,"inhibition at 3 µM (rat mesangial cell line [1]; [3]): ~12%; inhibition at 30 µM (rat mesangial cell line [1]; [3]): 70 to 80%; inhibition at 100 µM (rat mesangial cell line [1]; Rattus norvegicus, Mesangial cell, @ 100 μM, 5 ng/mL TGF-β1, 44 h, read-out: Mesangial Cell Assay TGF-β % reduction of TGF-β stimulation_proline inc.): ~80%; Effect on mesangial cell appearance (rat mesangial cell line [2]; @ 100 μM): stress @"
"C#CCCOc1ccc(/C=C/C(=O)Nc2ccccc2C(=O)O)cc1OC [Analogue 37, (E)-2-[[3-(4-(But-3-ynyloxy)-3-methoxyphenyl)-1-oxo-2-propenyl]amino]benzoic acid]",178 to 180,=FT11,~50,inhibition at 30 µM (rat mesangial cell line [1]; [3]): 70%; Effect on mesangial cell appearance (rat mesangial cell line [2]; @ 100 μM): Some death
